Read-outs that look alike come from different tables or passages of the source. One block for each compound: values may come before it.
Assays:
[1] = target: rat mGlu5 (Rattus norvegicus (Rat), UniProt P31424); assay: mGlu5 Ca2+ flux assay; format: cell-based; settings: for Fold selectivity (mGlu3 vs. mGlu5): ratio of rat mGlu5 EC50 or IC50 to rat mGlu3 IC50; for EC50: read-out: rat mGlu5 EC50 or IC50
Procedure, shortened: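 Ca2+ flux read kinetically (FDSS7000) after overnight culture at 37° C/5% CO2 and a 5 min room-temperature buffer step following dye removal. Signals expressed per well as F/F0 and normalized to peak glutamate response; EC50 fitted by free 4-parameter logistic, three replicates per concentration equally weighted.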

[2] = target: rat mGlu3 (Rattus norvegicus (Rat), UniProt P31422); assay: mGlu3 Ca2+ flux assay; format: cell-based; settings: for IC50: read-out: rat mGlu3 IC50; for remaining activity at 30 µM: amplitude of response at 30 μM test compound as % of maximal response to glutamate, read-out: rat mGlu3 Glu max (%)
Procedure, shortened: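 This calcium mobilization assay used rat mGlu3 cells cultured overnight (37° C., 5% CO2) and read on the FDSS7000 after a 10 minute room-temperature incubation in 20 μL assay buffer. Each of 360 readings per well was divided by its initial value (F/F0). Potency came from fitting normalized responses against log concentration with an unconstrained 4 parameter logistic equation, weighting triplicate points equally.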

[3] = NAM potency, decrease of glutamate EC80 response, >30,000 = no measurable activity, >10,000 = no plateau

rat mGlu5, sequence (P31424 21-1203): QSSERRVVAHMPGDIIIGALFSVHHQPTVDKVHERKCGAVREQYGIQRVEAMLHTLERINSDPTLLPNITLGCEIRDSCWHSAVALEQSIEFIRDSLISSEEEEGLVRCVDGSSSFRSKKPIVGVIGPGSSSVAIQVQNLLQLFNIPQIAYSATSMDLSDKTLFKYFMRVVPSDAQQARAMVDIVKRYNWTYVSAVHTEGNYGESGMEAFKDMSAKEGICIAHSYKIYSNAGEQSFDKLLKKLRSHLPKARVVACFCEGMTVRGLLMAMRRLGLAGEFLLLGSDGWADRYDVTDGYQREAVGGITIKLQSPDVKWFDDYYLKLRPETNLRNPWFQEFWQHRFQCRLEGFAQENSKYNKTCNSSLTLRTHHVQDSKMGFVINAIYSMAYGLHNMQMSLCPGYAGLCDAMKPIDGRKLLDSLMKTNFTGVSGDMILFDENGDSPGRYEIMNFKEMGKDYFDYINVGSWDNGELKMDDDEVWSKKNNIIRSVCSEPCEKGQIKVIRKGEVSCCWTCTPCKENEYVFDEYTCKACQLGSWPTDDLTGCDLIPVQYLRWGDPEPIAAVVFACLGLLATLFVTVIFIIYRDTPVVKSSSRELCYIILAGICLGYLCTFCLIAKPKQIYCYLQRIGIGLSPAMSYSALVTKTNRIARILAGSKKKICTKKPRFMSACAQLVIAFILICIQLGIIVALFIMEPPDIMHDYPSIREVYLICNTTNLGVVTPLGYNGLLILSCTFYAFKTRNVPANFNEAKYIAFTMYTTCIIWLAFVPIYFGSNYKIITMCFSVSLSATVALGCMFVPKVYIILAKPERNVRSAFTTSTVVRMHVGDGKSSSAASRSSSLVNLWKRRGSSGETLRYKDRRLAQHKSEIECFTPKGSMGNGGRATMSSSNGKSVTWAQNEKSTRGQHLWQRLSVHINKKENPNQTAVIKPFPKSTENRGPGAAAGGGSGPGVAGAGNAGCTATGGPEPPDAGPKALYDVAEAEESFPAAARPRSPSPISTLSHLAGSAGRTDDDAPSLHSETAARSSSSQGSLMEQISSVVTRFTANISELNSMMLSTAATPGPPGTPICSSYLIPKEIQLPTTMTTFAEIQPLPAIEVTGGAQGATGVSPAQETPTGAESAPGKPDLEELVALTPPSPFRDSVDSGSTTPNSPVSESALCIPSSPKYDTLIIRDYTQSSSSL
rat mGlu3, sequence (P31422 23-879): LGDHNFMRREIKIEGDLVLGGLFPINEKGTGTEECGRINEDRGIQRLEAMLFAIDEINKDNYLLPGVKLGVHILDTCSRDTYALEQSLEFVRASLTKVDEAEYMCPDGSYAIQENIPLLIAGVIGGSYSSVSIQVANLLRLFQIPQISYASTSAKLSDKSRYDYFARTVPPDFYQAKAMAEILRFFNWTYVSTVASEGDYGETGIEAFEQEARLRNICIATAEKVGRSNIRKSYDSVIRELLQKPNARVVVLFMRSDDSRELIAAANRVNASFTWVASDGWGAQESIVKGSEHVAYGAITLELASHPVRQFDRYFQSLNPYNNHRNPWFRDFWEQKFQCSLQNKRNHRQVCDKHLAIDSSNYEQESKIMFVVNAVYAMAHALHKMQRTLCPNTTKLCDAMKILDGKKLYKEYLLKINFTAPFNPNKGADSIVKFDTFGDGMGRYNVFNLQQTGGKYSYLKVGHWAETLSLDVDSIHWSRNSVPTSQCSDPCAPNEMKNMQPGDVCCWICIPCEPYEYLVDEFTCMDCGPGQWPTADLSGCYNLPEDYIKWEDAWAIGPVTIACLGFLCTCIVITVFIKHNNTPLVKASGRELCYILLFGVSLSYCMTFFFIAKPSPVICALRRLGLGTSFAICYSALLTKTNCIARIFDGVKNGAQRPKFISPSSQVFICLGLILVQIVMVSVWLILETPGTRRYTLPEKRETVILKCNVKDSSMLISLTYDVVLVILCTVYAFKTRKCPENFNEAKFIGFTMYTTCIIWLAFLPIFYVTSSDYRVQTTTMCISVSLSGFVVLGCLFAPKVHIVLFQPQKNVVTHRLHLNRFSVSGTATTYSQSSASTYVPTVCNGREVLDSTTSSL

Compound: COc1ccc(N(C)Cc2cc3n(n2)CCN(c2cccc(F)c2)C3=O)cc1 [Compound 101, 5-(3-fluorophenyl)-2-(((4-methoxyphenyl)(methyl)amino)methyl)-6,7-dihydropyrazolo[1,5-a]pyrazin-4(5H)-one]
Fold selectivity (mGlu3 vs. mGlu5) [1]: >38 | EC50 [1]: > 30000 nM | IC50 [2, 3]: 783 nM | remaining activity at 30 µM [2]: 1.57%

Compound: COc1ccc(N(C)Cc2cc3n(n2)CCN(c2c(F)cc(F)cc2F)C3=O)cc1 [Compound 102, 2-(((4-methoxyphenyl)(methyl)amino)methyl)-5-(2,4,6-trifluorophenyl)-6,7-dihydropyrazolo[1,5-a]pyrazin-4(5H)-one]
Fold selectivity (mGlu3 vs. mGlu5) [1]: >37 | EC50 [1]: > 30000 nM | IC50 [2, 3]: 801 nM | remaining activity at 30 µM [2]: 1.68%

Compound: COc1ccc(N(C)Cc2cc3n(n2)CCN(c2cccc(C)c2)C3=O)cc1 [Compound 103, 2-(((4-methoxyphenyl)(methyl)amino)methyl)-5-(m-tolyl)-6,7-dihydropyrazolo[1,5-a]pyrazin-4(5H)-one]
Fold selectivity (mGlu3 vs. mGlu5) [1]: >37 | EC50 [1]: > 30000 nM | IC50 [2, 3]: 805 nM | remaining activity at 30 µM [2]: 1.16%

Compound: COc1ccc(N(C)Cc2cc3n(n2)CCN(c2cc(F)cc(F)c2)C3=O)cc1 [Compound 104, 5-(3,5-difluorophenyl)-2-(((4-methoxyphenyl)(methyl)amino)methyl)-6,7-dihydropyrazolo[1,5-a]pyrazin-4(5H)-one]
Fold selectivity (mGlu3 vs. mGlu5) [1]: >35 | EC50 [1]: > 30000 nM | IC50 [2, 3]: 856 nM | remaining activity at 30 µM [2]: 1.3%

Compound: COc1ccc(N(C)Cc2cc3n(n2)CCN(c2ccccc2F)C3=O)cc1 [Compound 105, 5-(2-fluorophenyl)-2-(((4-methoxyphenyl)(methyl)amino)methyl)-6,7-dihydropyrazolo[1,5-a]pyrazin-4(5H)-one]
Fold selectivity (mGlu3 vs. mGlu5) [1]: >34 | EC50 [1]: > 30000 nM | IC50 [2, 3]: 871 nM | remaining activity at 30 µM [2]: 2.05%

Fold selectivity (mGlu3 vs. mGlu5) [1]: >29 | EC50 [1]: > 30000 nM | remaining activity at 30 µM [2]: 0.79% | IC50 [2]: 1020 nM
Compound: COc1ccc(N(C)Cc2cc3n(n2)CCN(c2cc(F)ccc2F)C3=O)cc1 [Compound 106, 5-(2,5-difluorophenyl)-2-(((4-methoxyphenyl)(methyl)amino)methyl)-6,7-dihydropyrazolo[1,5-a]pyrazin-4(5H)-one]

Compound: COc1ccc(N(C)Cc2cc3n(n2)CCN(c2cccc(F)c2F)C3=O)cc1 [Compound 107, 5-(2,3-difluorophenyl)-2-(((4-methoxyphenyl)(methyl)amino)methyl)-6,7-dihydropyrazolo[1,5-a]pyrazin-4(5H)-one]
Fold selectivity (mGlu3 vs. mGlu5) [1]: >29 | EC50 [1]: > 30000 nM | IC50 [2, 3]: 1030 nM | remaining activity at 30 µM [2]: 1.67%

Compound: COc1ccc(N(C)Cc2cc3n(n2)CCN(c2ccc(C)cc2F)C3=O)cc1 [Compound 108, 5-(2-fluoro-4-methylphenyl)-2-(((4-methoxyphenyl)(methyl)amino)methyl)-6,7-dihydropyrazolo[1,5-a]pyrazin-4(5H)-one]
Fold selectivity (mGlu3 vs. mGlu5) [1]: >24 | EC50 [1]: > 30000 nM | IC50 [2, 3]: 1250 nM | remaining activity at 30 µM [2]: 0.97%

Compound: COc1ccc(N(C)Cc2cc3n(n2)CCN(c2ccc(F)cc2C)C3=O)cc1 [Compound 109, 5-(4-fluoro-2-methylphenyl)-2-(((4-methoxyphenyl)(methyl)amino)methyl)-6,7-dihydropyrazolo[1,5-a]pyrazin-4(5H)-one]
Fold selectivity (mGlu3 vs. mGlu5) [1]: >22 | EC50 [1]: > 30000 nM | IC50 [2, 3]: 1320 nM | remaining activity at 30 µM [2]: 2.13%

Compound: COc1ccc(N(C)Cc2cc3n(n2)CCN(c2c(F)cccc2F)C3=O)cc1 [Compound 110, 5-(2,6-difluorophenyl)-2-(((4-methoxyphenyl)(methyl)amino)methyl)-6,7-dihydropyrazolo[1,5-a]pyrazin-4(5H)-one]
Fold selectivity (mGlu3 vs. mGlu5) [1]: >18 | EC50 [1]: > 30000 nM | IC50 [2, 3]: 1640 nM | remaining activity at 30 µM [2]: 1.75%

Compound: COc1ccc(N(C)Cc2cc3n(n2)CCN(c2ccccc2C)C3=O)cc1 [Compound 111, 2-(((4-methoxyphenyl)(methyl)amino)methyl)-5-(o-tolyl)-6,7-dihydropyrazolo[1,5-a]pyrazin-4(5H)-one]
Fold selectivity (mGlu3 vs. mGlu5) [1]: >15 | EC50 [1]: > 30000 nM | IC50 [2, 3]: 2000 nM | remaining activity at 30 µM [2]: 0.74%

Compound: COc1ccc(N(C)Cc2cc3n(n2)CCN(c2ccccc2C#N)C3=O)cc1 [Compound 112, 2-(2-(((4-methoxyphenyl)(methyl)amino)methyl)-4-oxo-6,7-dihydropyrazolo[1,5-a]pyrazin-5(4H)-yl)benzonitrile]
Fold selectivity (mGlu3 vs. mGlu5) [1]: >7.9 | EC50 [1]: > 30000 nM | IC50 [2, 3]: 3790 nM | remaining activity at 30 µM [2]: 1.1%

Compound: COc1ccc(N(C)Cc2cc3n(n2)CCN(c2cccc(OC)c2)C3=O)cc1 [Compound 113, 5-(3-methoxyphenyl)-2-(((4-methoxyphenyl)(methyl)amino)methyl)-6,7-dihydropyrazolo[1,5-a]pyrazin-4(5H)-one]
Fold selectivity (mGlu3 vs. mGlu5) [1]: >26 | EC50 [1]: > 30000 nM | IC50 [2, 3]: 1120 nM | remaining activity at 30 µM [2]: 0.7%

Compound: COc1ccc(N(C)Cc2cc3n(n2)CCN(c2ccc(OC)cc2)C3=O)cc1 [Compound 114, 5-(4-methoxyphenyl)-2-(((4-methoxyphenyl)(methyl)amino)methyl)-6,7-dihydropyrazolo[1,5-a]pyrazin-4(5H)-one]
Fold selectivity (mGlu3 vs. mGlu5) [1]: >21 | EC50 [1]: > 30000 nM | IC50 [2, 3]: 1370 nM | remaining activity at 30 µM [2]: 1.7%

Compound: COc1ccc(N(C)Cc2cc3n(n2)CCN(c2csc(C)n2)C3=O)cc1 [Compound 115, 2-(((4-methoxyphenyl)(methyl)amino)methyl)-5-(2-methylthiazol-4-yl)-6,7-dihydropyrazolo[1,5-a]pyrazin-4(5H)-one]
Fold selectivity (mGlu3 vs. mGlu5) [1]: >18 | EC50 [1]: > 30000 nM | IC50 [2, 3]: 1620 nM | remaining activity at 30 µM [2]: 3.88%

Compound: COc1ccc(N(C)Cc2cc3n(n2)CCN(c2cccc(C#N)c2)C3=O)cc1 [Compound 116, 3-(2-(((4-methoxyphenyl)(methyl)amino)methyl)-4-oxo-6,7-dihydropyrazolo[1,5-a]pyrazin-5(4H)-yl)benzonitrile]
Fold selectivity (mGlu3 vs. mGlu5) [1]: >13 | EC50 [1]: > 30000 nM | IC50 [2, 3]: 2210 nM | remaining activity at 30 µM [2]: 1.55%

Compound: COc1ccc(N(C)Cc2cc3n(n2)CCN(c2ccccn2)C3=O)cc1 [Compound 117, 2-(((4-methoxyphenyl)(methyl)amino)methyl)-5-(pyridin-2-yl)-6,7-dihydropyrazolo[1,5-a]pyrazin-4(5H)-one]
Fold selectivity (mGlu3 vs. mGlu5) [1]: >10 | EC50 [1]: > 30000 nM | IC50 [2, 3]: 2730 nM | remaining activity at 30 µM [2]: 1.59%

Compound: COc1ccc(N(C)Cc2cc3n(n2)CCN(c2ccc(C#N)cc2)C3=O)cc1 [Compound 118, 4-(2-(((4-methoxyphenyl)(methyl)amino)methyl)-4-oxo-6,7-dihydropyrazolo[1,5-a]pyrazin-5(4H)-yl)benzonitrile]
Fold selectivity (mGlu3 vs. mGlu5) [1]: >15 | EC50 [1]: > 30000 nM | IC50 [2, 3]: 1970 nM | remaining activity at 30 µM [2]: 1.63%

Compound: COc1ccc(N(C)Cc2cc3n(n2)CCN(c2ccccc2OC)C3=O)cc1 [Compound 119, 5-(2-methoxyphenyl)-2-(((4-methoxyphenyl)(methyl)amino)methyl)-6,7-dihydropyrazolo[1,5-a]pyrazin-4(5H)-one]
Fold selectivity (mGlu3 vs. mGlu5) [1]: >9.1 | EC50 [1]: > 30000 nM | IC50 [2, 3]: 3280 nM | remaining activity at 30 µM [2]: 1.3%

Fold selectivity (mGlu3 vs. mGlu5) [1]: >10 | EC50 [1]: > 30000 nM | remaining activity at 30 µM [2]: 1.48% | IC50 [2]: 2880 nM
Compound: COCc1ccc(N2CCn3nc(CN(C)c4ccc(OC)cc4)cc3C2=O)cc1 [Compound 120, 5-(4-(methoxymethyl)phenyl)-2-(((4-methoxyphenyl)(methyl)amino)methyl)-6,7-dihydropyrazolo[1,5-a]pyrazin-4(5H)-one]

Compound: COc1ccc(N(C)Cc2cc3n(n2)CCN(c2cccnc2)C3=O)cc1 [Compound 121, 2-(((4-methoxyphenyl)(methyl)amino)methyl)-5-(pyridin-3-yl)-6,7-dihydropyrazolo[1,5-a]pyrazin-4(5H)-one]
Fold selectivity (mGlu3 vs. mGlu5) [1]: >6.3 | EC50 [1]: > 30000 nM | IC50 [2, 3]: 4690 nM | remaining activity at 30 µM [2]: 0.66%

Compound: COc1ccc(N(C)Cc2cc3n(n2)CCN(c2ccc(F)cn2)C3=O)cc1 [Compound 122, 5-(5-fluoropyridin-2-yl)-2-(((4-methoxyphenyl)(methyl)amino)methyl)-6,7-dihydropyrazolo[1,5-a]pyrazin-4(5H)-one]
Fold selectivity (mGlu3 vs. mGlu5) [1]: >26 | EC50 [1]: > 30000 nM | IC50 [2, 3]: 1140 nM | remaining activity at 30 µM [2]: 1.4%

Compound: COc1ccc(N(C)Cc2cc3n(n2)CCN(c2ccc(OC(F)F)cc2)C3=O)cc1 [Compound 123, 5-(4-(difluoromethoxy)phenyl)-2-(((4-methoxyphenyl)(methyl)amino)methyl)-6,7-dihydropyrazolo[1,5-a]pyrazin-4(5H)-one]
Fold selectivity (mGlu3 vs. mGlu5) [1]: >29 | EC50 [1]: > 30000 nM | IC50 [2, 3]: 1030 nM | remaining activity at 30 µM [2]: 0.3%

Compound: COc1ccc(N(C)Cc2cc3n(n2)CCN(c2ccc(Cl)cn2)C3=O)cc1 [Compound 124, 5-(5-chloropyridin-2-yl)-2-(((4-methoxyphenyl)(methyl)amino)methyl)-6,7-dihydropyrazolo[1,5-a]pyrazin-4(5H)-one]
Fold selectivity (mGlu3 vs. mGlu5) [1]: >32 | EC50 [1]: > 30000 nM | IC50 [2, 3]: 917 nM | remaining activity at 30 µM [2]: 1.64%

— patent publication US9676782B2, “Substituted pyrazolo[1,5-a]pyrazines as negative allosteric modulators of metabotropic glutamate receptor 3” (Vanderbilt University, priority 2014, dated 2017)
